The source of these data is patent US8114986B2, “Analogous compounds of 6-thioguanosine triphosphate, their use in medical fields and processes for their preparation” (Giuliani International Limited, priority 2005, dated 2012).

The subject of data set [1] is caspase-3/7 in T cells. Put plainly: Caspase-Glo 3/7 Assay in stimulated CD4+ T cells. The settings on record: day three of culture; untreated cells = 100%; three experiments; FIG. 8. The class given is cell-based, human. The protocol:
FIG. 8: Caspase-graph: Luminescence value of untreated cells was defined as 100% Caspase activity. Due to their specific luminescence value the caspase activity of treated cells were calculated accordingly. Induction of Caspase activityx[%]=Caspase activityx[%]−Caspase activityuntreated[%]. Means±SEM (Standart Error of the Mean=Standard deviation/radical(n)) of three different experiments are presented.
In addition, an alternative method was performed for screening of group-D derivatives (FIG. 8). It was decided to analyse the activity of caspase-3/7 in T cells, which were treated with group-D derivatives. As compared to AnnexinV/PI staining this new method might have some advantages: • It is an easier protocol. Therefore there are fewer possibilities for individual errors. • Increased activity of caspase-3 is very specific for apoptosis. Therefore this method is very sensitive for the detection of apoptosis. There is no interfering influence of necrotic cells. • The measurement is done in duplicate. In this way there is an internal control.
The Caspase-Glo 3/7 Assay (Promega™) was used. This assay is based on a caspase dependent luminescent signal. Protocol: CD4^+ T cells were isolated from human blood by magnetic beads (Dynal). T lymphocytes were stimulated in complete RPMI-1640 medium (RPMI-1640+10% FCS+100 U/ml Penicillin/Streptomycin+3 mM L-Glutamin) for 3 days with coated antibodies to CD3 (0.04 μg/ml) and soluble CD28 antibodies (PharMingen™; 1 μg/ml) plus IL-2 (R & D Systems™, Wiesbaden, Germany; 40 U/ml) in 96-well plates. Cells were treated with different group-D derivatives or were left untreated. At day three of culture Caspase-3/7 Assay was performed. 25 μl of Caspase-Glo 3/7 reagent was added to each well. Probes were mixed gently for 2 minutes and incubated at room temperature for 30 minutes. Finally 100 μl of each probe were transferred to a white walled 96-well luminometer plate and analysed in a plate-reading luminometer. The added reagent contains a specific substrate of caspase-3 and caspase-7. Cleavage of this substrate by activated caspase-3 results in luciferase reaction. Luminescence is proportional to the amount of caspase activity present (FIG. 8)

Data set [2] relates to human CD4+ T Lymphocytes. Put plainly: Induction of apoptosis in CD3/CD28 costimulated T lymphocytes, annexin V / propidium iodide FACS. The class given is cell-based. The note with it: for induction of apoptosis: 5 μM added at day 0, CD3/CD28 costimulated T lymphocytes; for induction of apoptosis / induction of apoptosis compared with azathioprine or 6-mercaptopurine mediated induction: 3, 4 or 5 days, FIGS. 2-4; for induction of apoptosis compared with azathioprine or 6-mercaptopurine mediated induction: 5 μM; for apoptosis induction: FIGS. 5 and 6, at least three experimental data sets, primary T cells of different donors. The procedure:
Human peripheral blood mononuclear cells (PBMC) from 4 buffycoats were isolated using Ficoll-Hypaque gradients. PBMC were further purified using CD4 monoclonal antibodies attached to immunomagnetic microbeads according to the protocol provided by the manufacturer (Miltenyi Biotec). […] Azathioprine, 6-Mercaptopurine, V1, V2, V3, V4 or V5 were added to the T cell cultures at day 0 at a final concentration of 5 μM. To determine induction of apoptosis in these T lymphocytes, cells were analyzed by FACS. For FACS analysis, apoptotic cells were detected by staining with annexin V and propidium iodide using the Annexin V FITC Apoptosis Detection Kit I (PharMingen). In brief, T cells were washed twice in PBS, and the pellet was resuspended in annexin V binding buffer (PharMingen) at a concentration of 10^6 cells per milliliter. Annexin V FITC and propidium iodide were added (5 μl of each per 10^5 cells), Samples were gently mixed and incubated for 15 minutes at room temperature in the dark before FACS analysis.
• Annexin-positive, propidium iodide-negative cells (black bars) present the rate of early apoptotic cells. Annexin-positive, propidium iodide-positive cells (white bars) present late apoptotic or necrotic cells. • Induction of apoptosis=(Rate of apoptotic cells after indicated treatment)−(Rate of apoptosis of untreated cells) • V1, V2 and V3 were tested in 4 independent experiments. V4 and V5 were tested in 2 independent experiments.

Data set [3] concerns the target Rac1 (Homo sapiens, UniProt P63000). The note with it: cited from earlier work.
Data set [4] is described as follows: Solubility in water. Type of data set: physicochemical.

Take `Cn1ccc(NC(=O)[C@@H]2OC3C(COP(=O)(O)OP(=O)(O)OP(=O)(O)O)OC(n4cnc5c(=S)[nH]c(N)nc54)C3O2)n1` (some centres unmarked) [06D-13]: the “induction of caspase activity” value in data set [1] is listed as “promising”.

As for TAMRA-EDA-6-Thio-GTP [V5], in data set [2], the induction of apoptosis result was “able to induce apoptosis”; the “induction of apoptosis compared with azathioprine or 6-mercaptopurine mediated induction” value was “more pronounced and appeared earlier”.

As to Aspartate-2,3′-EDA-6-Thio-GTP [05B-1], the “induction of caspase activity” value in data set [1] is “less effective than 05B-0”.

In the case of 2′,3′-EDA-6-Thio-GTP [05B-0], in data set [2], the induction of apoptosis entry is “able to induce apoptosis”; the “induction of apoptosis compared with azathioprine or 6-mercaptopurine mediated induction” value is “more pronounced and appeared earlier”; the apoptosis induction result is on record as “strongest candidate drug for apoptosis induction”. Also, in data set [1], the “induction of caspase activity” value is reported as “very effective”.

Take `NCCCCCCNc1nc2c(ncn2[C@@H]2O[C@H](CO)[C@@H](O)[C@H]2O)c(=O)[nH]1` [V2, N-2-(6″-Aminohexyl)-guanosine]: in data set [2], the induction of apoptosis entry is on record as “not able to induce apoptosis”.

Consider `Nc1nc2c(ncn2[C@@H]2O[C@H](COP(=O)(O)OP(=O)(O)OP(=O)(O)O)[C@@H](O)[C@H]2O)c(=S)[nH]1` [6-Thio-GTP, 6-thioguanosine triphosphate], for which, in data set [2], the apoptosis induction result is on record as “on average was not able to induce apoptosis”. In addition, the “induction of caspase activity” value in data set [1] is “able to induce caspase activity”. Moreover, the “affinity to Rac1, fold less in comparison with GTP” value in data set [3] was 20 fold.

On to `CC(=O)OC[C@H]1O[C@@H](n2cnc3c(S)nc(NCCCCCCNC(C)=S)nc32)C(OC(C)=O)C1OC(C)=O` (some centres unmarked) [V4, 2′,3′,5′-Triacetyl-N-2-(6″-thioacetamide-hexyl)-6-Thioguanosine], for which the induction of apoptosis entry in data set [2] is “not able to induce apoptosis”. Also, the solubility in water result in data set [4] is recorded as “not soluble in water”.

Take `Cc1cc(CNC(=O)[C@@H]2OC3C(COP(=O)(O)OP(=O)(O)OP(=O)(O)O)OC(n4cnc5c(=S)[nH]c(N)nc54)C3O2)nn1C` (some centres unmarked) [06D-14]: the “induction of caspase activity” value in data set [1] is “promising”.

Regarding `CC(=O)NCCCCCCNc1nc(O)c2ncn([C@@H]3O[C@H](COC(C)=O)C(OC(C)=O)C3OC(C)=O)c2n1` (some centres unmarked) [V3, 2′,3′,5′,o-Triacetyl-N-2-(Acetyl-6″-aminohexyl)-guanosine], the induction of apoptosis entry in data set [2] is reported as “not able to induce apoptosis”. The solubility in water result in data set [4] is “not soluble in water”.
